In ChEMBL document CHEMBL1201862, “PubChem BioAssay data set” (2004):
The source made the active and inactive calls.

How the values were obtained:
[1] = molecular target: Sphingosine 1-phosphate receptor 2 (Homo sapiens, UniProt O95136); test: Dose Response Cell Based Assay for Antagonists of the S1P2 Receptor. [Related pubchem assays: 856, 736 ]; type: functional
[2] = molecular target: Cytochrome P450 2C9 (Homo sapiens, UniProt P11712)
[3] = molecular target: Ephrin type-A receptor 4 (Mus musculus, UniProt Q03137); test: inhibitors of EphA4 binding to KYL peptide, primary screen, biochemical, colorimetric, mouse EphA4 (AID 689); type: functional
Chain of Ephrin type-A receptor 4 (Q03137 whole entry): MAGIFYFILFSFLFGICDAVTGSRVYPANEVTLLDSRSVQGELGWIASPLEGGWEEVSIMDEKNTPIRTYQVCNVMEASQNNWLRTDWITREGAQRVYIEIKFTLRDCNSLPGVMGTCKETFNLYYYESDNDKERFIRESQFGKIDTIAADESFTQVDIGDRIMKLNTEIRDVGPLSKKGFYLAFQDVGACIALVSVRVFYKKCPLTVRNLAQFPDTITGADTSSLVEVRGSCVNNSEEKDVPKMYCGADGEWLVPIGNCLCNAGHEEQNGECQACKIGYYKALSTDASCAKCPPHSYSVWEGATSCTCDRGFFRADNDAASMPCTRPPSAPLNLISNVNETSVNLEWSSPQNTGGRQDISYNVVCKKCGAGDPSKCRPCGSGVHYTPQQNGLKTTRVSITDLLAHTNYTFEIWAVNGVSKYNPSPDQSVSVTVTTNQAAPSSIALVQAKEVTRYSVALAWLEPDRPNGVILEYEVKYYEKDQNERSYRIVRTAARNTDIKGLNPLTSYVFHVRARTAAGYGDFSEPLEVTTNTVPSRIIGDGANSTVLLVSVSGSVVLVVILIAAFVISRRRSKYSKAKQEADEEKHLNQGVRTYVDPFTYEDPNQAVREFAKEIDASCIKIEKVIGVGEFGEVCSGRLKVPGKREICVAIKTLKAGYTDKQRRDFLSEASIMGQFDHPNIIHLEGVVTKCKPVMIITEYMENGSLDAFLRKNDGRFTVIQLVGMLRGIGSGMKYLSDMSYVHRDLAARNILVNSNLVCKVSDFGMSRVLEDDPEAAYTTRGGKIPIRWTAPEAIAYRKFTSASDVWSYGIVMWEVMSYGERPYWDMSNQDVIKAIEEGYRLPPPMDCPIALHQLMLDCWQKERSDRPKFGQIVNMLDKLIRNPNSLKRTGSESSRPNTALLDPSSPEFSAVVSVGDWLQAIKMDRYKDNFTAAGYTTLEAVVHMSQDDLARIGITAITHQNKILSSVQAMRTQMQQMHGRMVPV

[4] = molecular target: Eukaryotic translation initiation factor 4E (Mus musculus, UniProt P63073); test: eIF4E–eIF4G protein interaction inhibitors, dose response, biochemical, TR-FRET (AID 855); type: functional;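 also: potency for disrupting eIF4E binding to eIF4GI seen as loss of FRET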
Chain of Eukaryotic translation initiation factor 4E (P63073 whole entry): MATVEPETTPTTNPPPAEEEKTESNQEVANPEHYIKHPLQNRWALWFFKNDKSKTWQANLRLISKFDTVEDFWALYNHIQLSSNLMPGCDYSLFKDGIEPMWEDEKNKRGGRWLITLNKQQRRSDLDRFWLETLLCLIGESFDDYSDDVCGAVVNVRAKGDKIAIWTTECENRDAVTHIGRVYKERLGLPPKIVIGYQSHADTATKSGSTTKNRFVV

[5] = molecular target: T1, Rac GTPase-activating protein 1 (Homo sapiens, UniProt Q9H0H5); test: MgcRacGAP GTPase-activating activity inhibitors, confirmation, biochemical, ADP Hunter fluorescence, primary and confirmatory (AID 624330); type: functional
T1 sequence (Q9H0H5 whole entry): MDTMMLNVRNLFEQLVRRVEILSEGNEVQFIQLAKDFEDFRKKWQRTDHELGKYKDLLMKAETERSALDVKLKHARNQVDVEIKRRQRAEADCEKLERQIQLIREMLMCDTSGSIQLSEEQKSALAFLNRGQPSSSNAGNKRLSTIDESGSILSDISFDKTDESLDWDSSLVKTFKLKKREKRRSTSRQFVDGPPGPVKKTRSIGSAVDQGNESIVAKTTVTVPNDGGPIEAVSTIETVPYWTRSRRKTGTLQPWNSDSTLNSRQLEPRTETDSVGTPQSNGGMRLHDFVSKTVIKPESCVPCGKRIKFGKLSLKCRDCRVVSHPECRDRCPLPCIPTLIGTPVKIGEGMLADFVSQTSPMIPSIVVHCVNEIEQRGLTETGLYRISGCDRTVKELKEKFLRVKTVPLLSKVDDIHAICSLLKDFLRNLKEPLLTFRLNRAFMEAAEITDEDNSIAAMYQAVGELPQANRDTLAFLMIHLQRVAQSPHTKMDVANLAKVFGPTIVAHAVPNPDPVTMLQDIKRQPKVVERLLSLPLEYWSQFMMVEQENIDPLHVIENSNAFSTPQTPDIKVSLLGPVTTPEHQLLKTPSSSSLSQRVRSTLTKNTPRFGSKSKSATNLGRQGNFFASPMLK

[6] = molecular target: Induced myeloid leukemia cell differentiation protein Mcl-1 (Homo sapiens, UniProt Q07820); type: functional
Chain of Induced myeloid leukemia cell differentiation protein Mcl-1 (Q07820 whole entry, the tested form may be a part): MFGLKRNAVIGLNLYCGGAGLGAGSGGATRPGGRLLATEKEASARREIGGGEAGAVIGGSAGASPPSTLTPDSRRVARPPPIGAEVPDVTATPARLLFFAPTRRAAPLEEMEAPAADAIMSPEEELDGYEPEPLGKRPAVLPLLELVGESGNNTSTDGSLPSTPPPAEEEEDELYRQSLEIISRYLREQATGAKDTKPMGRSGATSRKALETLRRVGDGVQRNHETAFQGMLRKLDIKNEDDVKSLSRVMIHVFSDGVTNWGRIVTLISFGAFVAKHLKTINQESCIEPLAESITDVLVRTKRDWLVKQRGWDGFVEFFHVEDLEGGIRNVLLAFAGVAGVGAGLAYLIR

[7] = molecular target: T2, Carboxy-terminal domain RNA polymerase II polypeptide A small phosphatase 1 (Homo sapiens, UniProt Q9GZU7); test: inhibitors of CTDSP1, concentration-response testing, biochemical assay, absorbance-based, actives from ultra-high-throughput screening (AID 540297); type: functional
T2 sequence (Q9GZU7 whole entry): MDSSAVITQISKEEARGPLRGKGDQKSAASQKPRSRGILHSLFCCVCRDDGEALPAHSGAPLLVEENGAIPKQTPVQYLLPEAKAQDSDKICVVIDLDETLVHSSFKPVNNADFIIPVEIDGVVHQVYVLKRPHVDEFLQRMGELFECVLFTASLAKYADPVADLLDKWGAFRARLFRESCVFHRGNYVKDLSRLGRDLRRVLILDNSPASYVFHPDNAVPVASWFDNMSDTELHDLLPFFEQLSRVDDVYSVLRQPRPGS

[8] = molecular target: DNA (cytosine-5)-methyltransferase 1 (Homo sapiens, UniProt P26358); test: DNMT1 methyltransferase inhibitors, confirmation, biochemical, fluorescent molecular beacon (AID 602386); type: functional
[9] = molecular target: T3, Estrogen receptor beta (Homo sapiens, UniProt Q92731); test: ERβ–SRC-3 coactivator interaction inhibitors, confirmation, orthogonal assay, biochemical, ELISA, streptavidin-HRP readout (AID 1060)
T3 sequence (Q92731 whole entry): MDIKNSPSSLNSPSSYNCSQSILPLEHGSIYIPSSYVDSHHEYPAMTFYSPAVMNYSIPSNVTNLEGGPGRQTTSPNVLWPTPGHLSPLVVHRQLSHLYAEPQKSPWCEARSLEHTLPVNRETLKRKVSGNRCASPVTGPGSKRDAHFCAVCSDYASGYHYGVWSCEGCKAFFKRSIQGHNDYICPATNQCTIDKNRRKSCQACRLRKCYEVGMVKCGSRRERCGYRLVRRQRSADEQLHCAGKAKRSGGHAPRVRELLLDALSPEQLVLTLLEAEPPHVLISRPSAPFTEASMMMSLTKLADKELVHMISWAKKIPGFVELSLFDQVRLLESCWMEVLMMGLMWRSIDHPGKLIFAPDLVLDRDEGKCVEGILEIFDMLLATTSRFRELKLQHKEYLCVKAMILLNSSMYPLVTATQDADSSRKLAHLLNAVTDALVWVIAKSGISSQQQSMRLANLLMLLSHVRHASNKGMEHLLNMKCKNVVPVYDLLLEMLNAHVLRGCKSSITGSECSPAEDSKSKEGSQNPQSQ

[10] = molecular target: T3, Estrogen receptor beta
[11] = molecular target: T4, Sphingosine 1-phosphate receptor 4 (Homo sapiens, UniProt O95977); test: Fluorescence dose response cell-based high throughput screening assay for antagonists of the Sphingosine 1-Phosphate Receptor 4 (S1P4). [Related pubchem assays: 1524 (Confirmation in triplicates.), 1510 (Primary screen.)]; type: functional
T4 sequence (O95977 whole entry): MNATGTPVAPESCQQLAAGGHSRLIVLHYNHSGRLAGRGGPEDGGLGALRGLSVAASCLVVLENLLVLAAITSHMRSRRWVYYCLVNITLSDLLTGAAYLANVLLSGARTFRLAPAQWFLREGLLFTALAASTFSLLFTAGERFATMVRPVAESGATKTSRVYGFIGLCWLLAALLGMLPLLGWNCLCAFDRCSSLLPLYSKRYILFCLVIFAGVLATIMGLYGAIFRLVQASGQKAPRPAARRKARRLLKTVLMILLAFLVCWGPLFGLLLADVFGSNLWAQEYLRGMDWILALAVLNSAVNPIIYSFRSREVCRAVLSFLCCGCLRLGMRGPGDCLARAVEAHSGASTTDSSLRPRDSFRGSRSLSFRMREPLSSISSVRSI

[12] = molecular target: Sphingosine 1-phosphate receptor 1 (Homo sapiens, UniProt P21453); type: functional;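 also: Tango beta-arrestin reporter U2OS cells stimulated with S1P near its EC80; inhibitor potency meaning antagonism of receptor activation by the natural agonist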
Chain of Sphingosine 1-phosphate receptor 1 (P21453 whole entry): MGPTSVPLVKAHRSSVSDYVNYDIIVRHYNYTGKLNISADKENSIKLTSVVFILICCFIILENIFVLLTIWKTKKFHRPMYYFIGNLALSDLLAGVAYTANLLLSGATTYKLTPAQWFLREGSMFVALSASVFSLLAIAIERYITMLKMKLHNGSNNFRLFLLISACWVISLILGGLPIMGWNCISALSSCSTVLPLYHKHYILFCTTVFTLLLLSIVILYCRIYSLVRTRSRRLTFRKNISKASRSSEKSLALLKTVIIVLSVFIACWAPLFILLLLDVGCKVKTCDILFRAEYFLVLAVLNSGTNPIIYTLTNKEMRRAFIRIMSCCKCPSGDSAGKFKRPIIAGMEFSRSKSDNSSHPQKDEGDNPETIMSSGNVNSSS

[13] = test system: INS1; test: beta cell apoptosis inhibitors, cytokine rescue, dose response, luminescence, retest (AID 449756); type: functional, cell-based; conditions: Rattus norvegicus;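 also: cell death triggered by IL-1 beta plus TNF-alpha plus IFN-gamma mixture; protective hits raise ATP signal compared with cytokine alone wells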
[14] = molecular target: T4, Sphingosine 1-phosphate receptor 4; test: Late stage fluorescence dose response cell-based screening assay for antagonists of the Sphingosine 1-Phosphate Receptor 4 (S1P4). [Related pubchem assays: 1524 (Confirmation screen (S1P4 antagonists).), 1510 (Primary screen (S1P4 antagonists).), 1853 (Summary AID (S1P4 antagonists).), 1692 (Dose response screen (S1P4 antagonists).)]; type: functional
[15] = molecular target: T5, Replicative DNA helicase DnaB (Mycobacterium tuberculosis, UniProt P9WMR3); test: DnaB intein splicing inhibitors, dose response, biochemical, cell-free fluorescence (AID 449749); type: functional
T5 sequence (P9WMR3 whole entry): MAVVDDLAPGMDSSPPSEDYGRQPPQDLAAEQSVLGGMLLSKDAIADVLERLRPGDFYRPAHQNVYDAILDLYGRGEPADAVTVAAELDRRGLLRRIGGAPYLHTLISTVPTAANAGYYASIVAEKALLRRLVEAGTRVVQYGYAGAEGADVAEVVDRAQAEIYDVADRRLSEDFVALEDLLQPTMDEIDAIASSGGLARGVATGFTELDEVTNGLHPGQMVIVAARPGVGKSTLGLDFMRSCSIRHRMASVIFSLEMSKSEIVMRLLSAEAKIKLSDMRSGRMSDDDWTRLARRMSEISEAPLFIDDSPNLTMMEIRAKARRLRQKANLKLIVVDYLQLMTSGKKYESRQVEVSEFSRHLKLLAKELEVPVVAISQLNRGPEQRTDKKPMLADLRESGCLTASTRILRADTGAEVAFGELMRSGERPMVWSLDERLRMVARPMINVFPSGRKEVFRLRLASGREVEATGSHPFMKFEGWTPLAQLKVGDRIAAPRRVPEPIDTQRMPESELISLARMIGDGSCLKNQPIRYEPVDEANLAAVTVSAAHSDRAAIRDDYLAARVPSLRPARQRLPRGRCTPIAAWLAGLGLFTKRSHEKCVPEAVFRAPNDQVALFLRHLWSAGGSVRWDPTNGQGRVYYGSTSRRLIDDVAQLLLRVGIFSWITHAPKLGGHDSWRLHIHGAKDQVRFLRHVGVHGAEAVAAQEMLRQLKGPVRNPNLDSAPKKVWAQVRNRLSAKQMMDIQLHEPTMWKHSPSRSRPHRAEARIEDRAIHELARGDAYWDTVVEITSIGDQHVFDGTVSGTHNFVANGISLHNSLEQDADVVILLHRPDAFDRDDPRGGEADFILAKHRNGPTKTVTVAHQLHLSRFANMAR

[16] = Shn3 3'UTR reporter inhibitors, dose response, cell-based, Clone20 osteoblasts, firefly luciferase, cherry-picked (AID 624132); type: functional;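 also: firefly luciferase luminescence from reporter carrying the Shn3 3'UTR in osteoblasts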
[17] = HepG2 cell cytotoxicity, dose response, cytotoxicity control for Shn3 inhibitor project, CellTiter-Glo, cherry-picked (AID 624134); type: functional, cell-based
[18] = molecular target: T6, Fatty acid synthase (Homo sapiens, UniProt P49327); test: FAS thioesterase domain inhibitors, dose response, biochemical, kinetic fluorescence intensity (AID 624326); type: functional;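 also: rate of fluorescence rise from hydrolysis of a fluorogenic O-methyl fluorescein ester substrate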
T6 sequence (P49327 whole entry, the tested form may be a part): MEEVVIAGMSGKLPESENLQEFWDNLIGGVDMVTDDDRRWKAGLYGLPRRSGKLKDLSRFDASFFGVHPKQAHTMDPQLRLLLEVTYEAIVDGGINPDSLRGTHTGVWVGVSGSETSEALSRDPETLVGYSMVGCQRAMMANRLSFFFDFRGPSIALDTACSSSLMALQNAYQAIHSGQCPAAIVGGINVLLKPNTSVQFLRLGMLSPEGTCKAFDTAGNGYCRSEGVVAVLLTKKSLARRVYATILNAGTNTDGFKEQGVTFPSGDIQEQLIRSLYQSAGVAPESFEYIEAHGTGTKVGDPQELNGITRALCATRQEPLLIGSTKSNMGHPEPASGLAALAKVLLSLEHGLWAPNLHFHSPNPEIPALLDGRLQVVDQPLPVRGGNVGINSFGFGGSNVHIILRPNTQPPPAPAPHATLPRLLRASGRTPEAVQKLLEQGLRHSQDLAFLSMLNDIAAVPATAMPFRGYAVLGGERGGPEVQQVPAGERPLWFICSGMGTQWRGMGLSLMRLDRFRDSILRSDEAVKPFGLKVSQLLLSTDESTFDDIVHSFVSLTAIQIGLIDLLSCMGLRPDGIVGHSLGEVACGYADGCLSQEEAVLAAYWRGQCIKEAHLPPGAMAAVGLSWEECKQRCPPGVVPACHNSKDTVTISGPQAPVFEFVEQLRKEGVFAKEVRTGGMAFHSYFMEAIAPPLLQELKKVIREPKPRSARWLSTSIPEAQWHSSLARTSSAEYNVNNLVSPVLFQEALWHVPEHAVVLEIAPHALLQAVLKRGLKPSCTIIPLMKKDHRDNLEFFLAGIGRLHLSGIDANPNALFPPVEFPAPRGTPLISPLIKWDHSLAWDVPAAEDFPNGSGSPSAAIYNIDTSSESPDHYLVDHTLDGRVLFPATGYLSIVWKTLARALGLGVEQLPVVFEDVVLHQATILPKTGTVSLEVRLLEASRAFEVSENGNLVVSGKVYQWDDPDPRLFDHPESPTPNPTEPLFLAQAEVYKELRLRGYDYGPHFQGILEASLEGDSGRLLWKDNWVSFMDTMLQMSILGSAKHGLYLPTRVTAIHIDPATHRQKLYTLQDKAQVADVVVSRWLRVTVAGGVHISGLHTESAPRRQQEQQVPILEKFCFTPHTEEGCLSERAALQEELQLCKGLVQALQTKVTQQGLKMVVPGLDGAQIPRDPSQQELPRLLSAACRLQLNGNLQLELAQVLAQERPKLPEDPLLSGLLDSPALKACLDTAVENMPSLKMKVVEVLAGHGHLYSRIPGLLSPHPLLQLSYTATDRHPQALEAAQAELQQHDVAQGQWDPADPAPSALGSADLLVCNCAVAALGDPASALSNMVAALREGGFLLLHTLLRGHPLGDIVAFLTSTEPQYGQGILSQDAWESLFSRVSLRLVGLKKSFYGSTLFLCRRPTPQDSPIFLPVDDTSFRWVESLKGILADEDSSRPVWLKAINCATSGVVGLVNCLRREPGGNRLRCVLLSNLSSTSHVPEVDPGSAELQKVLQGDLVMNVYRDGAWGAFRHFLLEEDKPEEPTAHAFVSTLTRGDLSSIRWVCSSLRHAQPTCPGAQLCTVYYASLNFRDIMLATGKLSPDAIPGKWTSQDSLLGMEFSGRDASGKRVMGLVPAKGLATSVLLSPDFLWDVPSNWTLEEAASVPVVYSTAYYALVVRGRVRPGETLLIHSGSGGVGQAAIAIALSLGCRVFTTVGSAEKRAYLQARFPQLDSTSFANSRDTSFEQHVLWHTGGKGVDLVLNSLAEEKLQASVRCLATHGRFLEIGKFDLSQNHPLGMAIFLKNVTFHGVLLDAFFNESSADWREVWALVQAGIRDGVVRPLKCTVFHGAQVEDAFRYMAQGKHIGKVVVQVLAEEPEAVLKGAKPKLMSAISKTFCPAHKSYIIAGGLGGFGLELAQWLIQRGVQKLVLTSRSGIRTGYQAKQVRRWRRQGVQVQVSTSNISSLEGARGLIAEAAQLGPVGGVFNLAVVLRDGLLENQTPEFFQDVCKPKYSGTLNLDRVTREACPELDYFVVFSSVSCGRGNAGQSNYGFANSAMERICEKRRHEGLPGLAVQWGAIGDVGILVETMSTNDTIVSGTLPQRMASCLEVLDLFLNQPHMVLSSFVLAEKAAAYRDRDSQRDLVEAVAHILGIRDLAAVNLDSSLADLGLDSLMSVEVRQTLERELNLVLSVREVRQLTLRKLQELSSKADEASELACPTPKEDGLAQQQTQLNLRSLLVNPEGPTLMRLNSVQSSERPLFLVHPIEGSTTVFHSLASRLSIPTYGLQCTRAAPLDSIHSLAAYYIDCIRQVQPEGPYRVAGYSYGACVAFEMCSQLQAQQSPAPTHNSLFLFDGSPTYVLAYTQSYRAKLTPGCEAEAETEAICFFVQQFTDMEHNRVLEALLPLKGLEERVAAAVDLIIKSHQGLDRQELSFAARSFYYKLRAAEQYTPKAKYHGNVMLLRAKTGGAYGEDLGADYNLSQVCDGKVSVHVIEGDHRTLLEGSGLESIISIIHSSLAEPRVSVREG

[19] = Luminescent dose response cell-based high throughput screening assay for inhibitors of the Janus kinase 2 mutant JAK2V617F. [Related pubchem assays: 1446 (Primary screen.), 1521 (Confirmation assay.), 1486 (Counter screen.)]; type: functional
[20] = molecular target: Heat shock protein HSP 90-alpha (Homo sapiens, UniProt P07900); type: functional, organism-based
[21] = molecular target: T7, Protein RecA (Mycobacterium tuberculosis, UniProt P9WHJ3); test: Fluorescence Cell-Free Homogeneous Dose Retest to Identify Inhibitors of RecA-Intein Splicing Activity. [Related pubchem assays (depositor defined):AID2097, AID2223, AID489010, AID492950]; type: functional
T7 sequence (P9WHJ3 whole entry): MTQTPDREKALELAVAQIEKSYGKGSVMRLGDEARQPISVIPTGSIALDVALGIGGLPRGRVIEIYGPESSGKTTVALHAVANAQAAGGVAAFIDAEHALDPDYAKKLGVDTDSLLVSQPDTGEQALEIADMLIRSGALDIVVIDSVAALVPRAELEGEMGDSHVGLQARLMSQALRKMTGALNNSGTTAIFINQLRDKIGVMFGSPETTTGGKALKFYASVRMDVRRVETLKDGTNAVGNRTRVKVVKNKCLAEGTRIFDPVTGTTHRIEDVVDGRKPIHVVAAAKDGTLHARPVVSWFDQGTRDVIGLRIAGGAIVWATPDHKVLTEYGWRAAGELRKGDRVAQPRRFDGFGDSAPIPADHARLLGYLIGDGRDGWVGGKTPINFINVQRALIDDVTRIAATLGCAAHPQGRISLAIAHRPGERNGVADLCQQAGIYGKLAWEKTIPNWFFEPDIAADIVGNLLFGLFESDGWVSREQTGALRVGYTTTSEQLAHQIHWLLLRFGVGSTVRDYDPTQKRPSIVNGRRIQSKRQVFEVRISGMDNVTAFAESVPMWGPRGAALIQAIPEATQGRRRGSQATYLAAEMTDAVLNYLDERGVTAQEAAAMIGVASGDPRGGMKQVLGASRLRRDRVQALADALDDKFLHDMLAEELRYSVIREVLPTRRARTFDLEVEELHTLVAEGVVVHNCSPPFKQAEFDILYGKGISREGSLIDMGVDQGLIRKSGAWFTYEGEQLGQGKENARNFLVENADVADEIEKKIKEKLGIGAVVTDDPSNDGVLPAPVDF

[22] = control 3'UTR Renilla luciferase suppression, dose response, counter-screen for Shn3 inhibitor project, cell-based, Clone20-Shn3RL, cherry-picked (AID 624133); type: functional
[23] = molecular target: T6, Fatty acid synthase; test: FAS thioesterase domain inhibitors, dose response, biochemical, endpoint fluorescence intensity, uHTS hits (AID 624327); type: functional;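 also: fluorescence from hydrolysis of an O-methyl fluorescein acyl ester substrate by the enzyme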

With `COC(=O)c1sc2cc(C(F)(F)F)cnc2c1-c1cccs1` the IC50 [1] was > 30 µM (not active).
With `O=C(Nc1cccc2ccccc12)/C(=C/c1ccc([N+](=O)[O-])cc1)NC(=O)c1ccccc1` the AC50 [2] was 5.01 µM (inconclusive) and the IC50 [3] was 11.4 µM (active).
For `COc1ccc(Cc2nnc(NC(=O)Cc3cccs3)s2)cc1`, the IC50 [4] was 16.9 µM (active), the IC50 [5] was 52 µM (active) and the IC50 [6] was 1.59 µM (active). The IC50 [7] was 2.82 µM (active), the IC50 [3] was 13.6 µM (active) and the IC50 [8] was 4.47 µM (active). The IC50 [9] was 0.0725 µM (not active) and the IC50 [10] was < 1.56 µM (active).
In the case of `Cc1ccccc1CS(=O)(=O)c1nnc([C@H](Cc2ccccc2)NC(=O)OC(C)(C)C)o1`, the IC50 [11] is reported as 1.69 µM (active), the IC50 [12] is reported as > 49.8 µM (not active) and the AC50 [13] is reported as 8.99 µM (active). For the same compound, the IC50 [14] was 3.49 µM (not active), the AC50 [15] was 3.51 µM (active) and the AC50 [16] was 1.23 µM (active). The AC50 [17] was > 70 µM (inactive), the IC50 [18] was 8.22 µM (active) and the IC50 [19] was 0.695 µM (active). The AC50 [20] was 24.1 µM (active), the EC50 [21] was 8.54 µM (active) and the AC50 [22] was 8.32 µM (active). For the same compound, the IC50 [23] was 6.74 µM (active).
